Experimental data from article PMC12040169 (PLOS Biology, 2025).

Test: in vitro
Details: human, hela cells, % viability

Compared with `O=C(O)c1cc(S(=O)(=O)Nc2ccccc2C(=O)O)ccc1Br` [CBK262371], `Cc1ccc(S(=O)(=O)N(CC(=O)O)c2ccccc2C)cc1` [CBK262423] is higher in viability at 28.5 h, 10 µM: 98.8% for the first, 101% for the second.

First: COc1cc(/C=N\Nc2nnc3c(n2)[nH]c2c(C)cccc23)cc(Br)c1O [CBK262375]
Second: Oc1cccc(/C=N/Nc2nncc(-c3ccccc3)n2)c1 [CBK262468]
The viability at 28.5 h, 10 µM of the first is higher: 106% for the first, 86.6% for the second.

Compared with `N#C/C(=C\Nc1ccc(S(N)(=O)=O)cc1)c1nc(-c2cc3c(ccc4ccccc43)oc2=O)cs1` [CBK262376], `COc1cc(NS(=O)(=O)c2ccc(NC(=O)c3cccc4ccccc34)cc2)nc(OC)n1` [CBK262465] is lower in viability at 28.5 h, 10 µM: 105% for the first, 96.6% for the second.

Compared with `COc1cc(/C=N/NC(=O)c2nonc2N)ccc1OC(=O)c1cc(F)c(F)cc1Cl` [CBK262380], `COc1cc(/C=N/NC(=O)c2ccncc2)ccc1OCc1ccc(Cl)cc1` [CBK262454] is higher in viability at 28.5 h, 10 µM: 90.1% for the first, 114% for the second.

Compared with `Cc1cccc(C2(c3cccc(C)c3)CC2C(=O)NCc2cccnc2)c1` (stereo not drawn) [CBK262382], `O=C(N/N=C/c1c[nH]nc1-c1ccccc1)c1cccnc1` [CBK262461] is lower in viability at 28.5 h, 10 µM: 106% for the first, 101% for the second.

Going from `O=C(O)CCn1c(SCCc2ccccc2)nc2ccccc21` [CBK262384] to `O=C(O)CSc1nc2ccccc2n1Cc1ccccc1` [CBK262411], the viability at 28.5 h, 10 µM falls from 107% to 94.2%.

Going from `NC(C(=O)O)C(O)c1ccccc1[N+](=O)[O-]` (stereo not drawn) [CBK262389] to `O=CNC(Cc1ccc(O)c([N+](=O)[O-])c1)C(=O)O` (stereo not drawn) [CBK262421], the viability at 28.5 h, 10 µM rises from 92.7% to 101%.

First: COc1cc(C(C)=O)ccc1OC(=O)CN1C(=O)c2ccccc2C1=O [CBK262392]
Second: COc1ccc(C(=O)Nc2ccc(C(C)=O)cc2)cc1[N+](=O)[O-] [CBK262457]
The viability at 28.5 h, 10 µM of the first is higher: 112% for the first, 90.8% for the second.

Compared with `COc1cccc(C(C(F)(F)F)P(C)(=O)O)c1` (stereo not drawn) [CBK262393], `COc1cccc(NC(=O)C2CCCCC2C(=O)O)c1` (stereo not drawn) [CBK262410] is lower in viability at 28.5 h, 10 µM: 96.8% for the first, 93.1% for the second.

Compared with `O=C(CC1CS(=O)(=O)CC1CC(=O)Nc1cccc(Cl)c1Cl)Nc1cccc(Cl)c1Cl` (stereo not drawn) [CBK262404], `COc1cc2c(cc1NC(=O)C/C(C)=N/NC(=O)c1ccccc1F)oc1ccccc12` [CBK262437] is higher in viability at 28.5 h, 10 µM: 95.3% for the first, 106% for the second.

First: CC1=NN(c2ccc(Cl)cc2)C(=O)/C1=C\Nc1nnn[nH]1 [CBK262407]
Second: CCOC(=O)c1[nH]c(C)c(C(=O)N/N=C/c2ccc(-c3ccc(Cl)cc3)o2)c1C [CBK262503]
The viability at 28.5 h, 10 µM of the first is lower: 91% for the first, 95% for the second.

First: COc1ccc(N(C(C)C(=O)N/N=C2\C(=O)Nc3ccccc32)S(C)(=O)=O)cc1 (stereo not drawn) [CBK262408]
Second: Cc1ccc(N(CC(=O)O)S(=O)(=O)c2ccc(C)cc2)cc1 [CBK262409]
The viability at 28.5 h, 10 µM of the first is lower: 98.5% for the first, 106% for the second.

Going from `Brc1ccc2nc3c(nc2c1)Nc1nonc1N3` [CBK262414] to `Cc1ccc(C)c(Nc2nc3nonc3nc2N2CCOCC2)c1` [CBK262491], the viability at 28.5 h, 10 µM rises from 78.5% to 88.8%.

Compared with `COC(=O)c1ccc(C)c(N(CCO)CCO)c1` [CBK262418], `COC(=O)c1ccc2c(c1)[n+](CCO)c(C)n2CCO` [CBK262443C] is lower in viability at 28.5 h, 10 µM: 102% for the first, 88.1% for the second.

Compared with `O=C(O)c1cccc(N(CCO)CCO)c1` [CBK262419], `C=CCn1c(=O)c(C(=O)NCCCO)c(O)c2ccccc21` [CBK262481] is lower in viability at 28.5 h, 10 µM: 93.6% for the first, 83.9% for the second.

First: O=C(O)c1cc(-c2ccc3c(c2)OCCO3)nc2ccccc12 [CBK262422]
Second: O=[N+]([O-])c1ccc(-c2csc(Nc3ccc4c(c3)OCO4)n2)cc1 [CBK262448B]
The viability at 28.5 h, 10 µM of the first is lower: 92.5% for the first, 100% for the second.

Compared with `O=C1C2C(c3ccccc3Cl)OC3(C(=O)c4ccccc4C3=O)C2C(=O)N1c1ccc([N+](=O)[O-])cc1` (stereo not drawn) [CBK262425], `COc1ccc([N+](=O)[O-])cc1-c1ccc(-c2nc(-c3ccccc3)c(-c3ccccc3)[nH]2)o1` [CBK262497] is lower in viability at 28.5 h, 10 µM: 101% for the first, 77.3% for the second.

Compared with `O=c1cccc2n1CC1CC2CN(Cc2cccc(OCc3ccccc3)c2)C1` (stereo not drawn) [CBK262426], `N=c1n(Cc2ccccc2)c2ccccc2n1CC(O)COc1ccc(Cl)cc1` (stereo not drawn) [CBK262469C] is lower in viability at 28.5 h, 10 µM: 102% for the first, 94.4% for the second.

Going from `CC1=NN(c2nc(-c3cccc([N+](=O)[O-])c3)cs2)C(=O)C1/N=N/c1ccc(C)c(Br)c1` (stereo not drawn) [CBK262430] to `CC1=NN(c2nc(-c3ccc(Br)cc3)cs2)C(=O)C1/N=N/c1ccc(C(=O)O)cc1` (stereo not drawn) [CBK262435], the viability at 28.5 h, 10 µM falls from 104% to 86.7%.

Compared with `C=CCN1C(=O)/C(=C2/Sc3ccc(OC)cc3N2C)S/C1=N\c1cc(C#N)ccc1NCC` [CBK262431], `O=C(O)CCn1c2ccc(Br)cc2c2cc(Br)ccc21` [CBK262551] is lower in viability at 28.5 h, 10 µM: 108% for the first, 83.9% for the second.

Compared with `O=C(O)c1ccc(/C=N/Nc2nc(N3CCOCC3)nc(N3CCOCC3)n2)cc1` [CBK262433], `Cn1c(=O)[nH]c(=O)c2c1nc(N1CCOCC1)n2CC(O)COc1ccc(I)cc1` (stereo not drawn) [CBK262438] is higher in viability at 28.5 h, 10 µM: 99% for the first, 111% for the second.

Compared with `O=C(O)c1cccc(N2C(=O)C3C(C2=O)C2(c4ccccc4)C(=O)C3(c3ccccc3)C(c3ccccc3)=C2c2ccccc2)c1` (stereo not drawn) [CBK262439], `N=C(SC1CC(=O)N(c2ccc(C(=O)O)cc2)C1=O)N1N=C(c2ccccc2)CC1c1ccccc1` (stereo not drawn) [CBK262446] is higher in viability at 28.5 h, 10 µM: 84.8% for the first, 90.9% for the second.

Compared with `O=C(O)Cn1cnc(-c2ccc(Br)cc2)c1` [CBK262441], `Cn1c(CNc2ccc(C(=O)O)cc2)nc2ccccc21` [CBK262501] is lower in viability at 28.5 h, 10 µM: 111% for the first, 95.1% for the second.

Compared with `CNC(=S)NNC(=O)CN1CCSCC1` [CBK262444], `COC(=O)Cn1c(=N)n(CCN2CCOCC2)c2ccccc21` [CBK262447B] is higher in viability at 28.5 h, 10 µM: 88.3% for the first, 109% for the second.

Compared with `O=C(NC(c1ccccc1)c1ccccc1)c1ccc(Cl)cc1[N+](=O)[O-]` [CBK262452], `Cc1nc(N/C(=N/C(=O)c2ccccc2)NC(=O)c2ccccc2)nc2ccccc12` [CBK262529] is higher in viability at 28.5 h, 10 µM: 84.1% for the first, 103% for the second.

Going from `CCN(CC)CCNc1nc2cc(Cl)ccc2[nH]1` [CBK262453] to `CCN(CC)CC(O)Cn1c(-c2ccccc2Cl)nc2ccccc21` (stereo not drawn) [CBK262495], the viability at 28.5 h, 10 µM falls from 102% to 96.3%.

Compared with `CC(/C=C/c1ccc(N(C)C)cc1)=N\NC(=N)SC1CC(=O)N(c2ccc(C(=O)O)cc2)C1=O` (stereo not drawn) [CBK262460], `O=C(N/N=C/c1ccc(N2N=C(c3ccc(Cl)cc3)CC2c2ccc(Cl)cc2)cc1)c1cccnc1` (stereo not drawn) [CBK262494] is higher in viability at 28.5 h, 10 µM: 91.6% for the first, 103% for the second.

Compared with `NS(=O)(=O)c1ccc(CNC2CC(=O)N(CCc3ccccc3)C2=O)cc1` (stereo not drawn) [CBK262464], `O=C1c2ccccc2C(=O)N1c1ccc(S(=O)(=O)NCCCO)c2ccccc12` [CBK262509] is higher in viability at 28.5 h, 10 µM: 91.7% for the first, 105% for the second.

Going from `Cc1cc(C(=O)NCCCN(C)C)ccc1[N+](=O)[O-]` [CBK262467] to `CCN(CC)CCn1c(=N)n(CC(=O)OC)c2ccccc21` [CBK262517B], the viability at 28.5 h, 10 µM falls from 90.8% to 87.3%.

Compared with `O=C(CN(c1cccc(Cl)c1)S(=O)(=O)c1ccccc1)NN=C1CCCCC1` [CBK262470], `O=C(CN(c1cccc(Cl)c1)S(=O)(=O)c1ccccc1)NN=C1CCCCCC1` [CBK262519] is lower in viability at 28.5 h, 10 µM: 114% for the first, 89.9% for the second.

First: Cc1cc([N+](=O)[O-])cc2c1NC(=O)C2(O)N1CCOCC1 (stereo not drawn) [CBK262475]
Second: O=C1CC(c2ccccc2)CC(=O)C1=CNCCN1CCOCC1 (stereo not drawn) [CBK262522]
The viability at 28.5 h, 10 µM of the first is lower: 91.7% for the first, 94% for the second.

Going from `COc1cc(/C=C(\C#N)c2nn(-c3ccccc3)c(N)c2C#N)ccc1Oc1ccc(C(F)(F)F)cc1[N+](=O)[O-]` [CBK262484] to `CN(C)c1ccc(/C=C(\C#N)c2nn(-c3ccccc3)c(N)c2C#N)cc1[N+](=O)[O-]` [CBK262532], the viability at 28.5 h, 10 µM falls from 92.7% to 83.4%.

Compared with `NC(=O)c1c(NC(=O)c2ccc(S(=O)(=O)N3CCCC3)cc2)sc2c1CCCC2` [CBK262486], `NNC(=O)c1c(NC(=O)c2ccccc2)sc2c1CCC2` [CBK262516] is lower in viability at 28.5 h, 10 µM: 106% for the first, 104% for the second.

Compared with `CCC(=O)c1c(-c2ccccc2)nc2n(C)c3ccccc3n12` [CBK262488], `Cc1ccccc1OCCSc1nc2ccccc2n1CCO` [CBK262523] is higher in viability at 28.5 h, 10 µM: 69.9% for the first, 98.1% for the second.

Going from `Oc1ccc(/C=N/Nc2nncc(-c3ccccc3)n2)c(O)c1O` [CBK262492] to `COC(=O)c1ccccc1NC(=O)c1cc2nc(-c3cccs3)cc(C(F)(F)F)n2n1` [CBK262524], the viability at 28.5 h, 10 µM rises from 80.6% to 88%.

Compared with `N=c1n(CCN2CCCCC2)c2ccccc2n1CC(O)COc1ccc(Cl)cc1` (stereo not drawn) [CBK262512C], `O=S(=O)(NCC(O)Cn1c2ccc(Cl)cc2c2cc(Cl)ccc21)c1ccccc1` (stereo not drawn) [CBK262542] is lower in viability at 28.5 h, 10 µM: 89.7% for the first, 88.6% for the second.

Compared with `CC(=O)Nc1nnc(SCCc2ccccc2)[nH]1` [CBK262514], `C=CCOC(=O)C1=C(C)OC(N)=C(C(=O)OCc2ccccc2)C12C(=O)Nc1ccccc12` (stereo not drawn) [CBK262527] is lower in viability at 28.5 h, 10 µM: 95.6% for the first, 90.9% for the second.

Going from `CC1(C)CC(=O)C(=CNCC(N)=O)C(=O)C1` [CBK262520] to `CCOC(=O)C1=c2s/c(=C\c3cccnc3)c(=O)n2C(N)=C(C#N)C1c1cccnc1` (stereo not drawn) [CBK262549], the viability at 28.5 h, 10 µM rises from 87.2% to 107%.

First: O=C(Nc1cc(Oc2cccnc2)cc([N+](=O)[O-])c1)c1nn2c(C(F)(F)F)cc(-c3cccs3)nc2c1Br [CBK262535]
Second: CCOC(=O)c1c(NC(=O)c2nn3c(C(F)(F)F)cc(-c4cccs4)nc3c2Cl)sc2c1CCCC2 [CBK262539]
The viability at 28.5 h, 10 µM of the first is lower: 84.7% for the first, 95.1% for the second.

Going from `O=C(c1ccc(S(=O)(=O)N2CCCCC2)cc1)N1CCN(CCN2C(=O)c3cccc4cccc(c34)C2=O)CC1` [CBK262536] to `O=[N+]([O-])c1ccc(NCCCNS(=O)(=O)c2ccc(Cl)cc2)c(Cl)c1` [CBK262543], the viability at 28.5 h, 10 µM rises from 79.3% to 90.6%.

`OC(Cn1c(Cc2ccccc2)nc2ccccc21)Cn1c2ccc(Cl)cc2c2cc(Cl)ccc21` (stereo not drawn) [CBK262546] gave a viability at 28.5 h, 10 µM of 89.4%.

Same assay, conditions: human, hela cells, % viability, bulk resorufin, single well

First: CCN(CC)CCCNC=C1C(=O)NC(=O)NC1=O [CBK262403]
Second: CN(C)Cc1c(O)[nH]c(=S)[nH]c1=O [CBK262474]
The viability at 28.5 h, 10 µM of the first is higher: 94% for the first, 92.6% for the second.

With `O=c1[nH]c(=S)[nH]c(O)c1CN1CCOCC1` [CBK262493] the viability at 28.5 h, 10 µM was 98.7%.
